The values that follow come from US7276576B1, “Mammalian ICYP (iodocyanopindolol) receptor and its applications” (Dainippon Sumitomo Pharma Co., Ltd., priority 1996, dated 2007).

Assay [1] has as its target T1, [125I]-ICYP specific binding site (SMBP, SM-11044 binding protein) in rat colon smooth muscle membranes (Rattus norvegicus, UniProt A0A8I6A822).
T1 construct: Membranes from colon smooth muscles were prepared as essentially described by Ek et al., 1986; from tissue
As to the kind of experiment: [125I]-ICYP saturation and competition binding to rat colon membranes (Example 2). The conditions noted are these: for Ki: read-out: Ki on [125I]-ICYP specific binding to rat colon membranes; for Displacement of [125I]-ICYP specific binding (in words): competition binding, no concentration stated; for Displacement of [125I]-ICYP specific binding: up to the concentration of 1 mM. Here is the method:
Incubations were carried out at 37° C. for 30 min in a shaking water-bath incubator and terminated by addition of 4 ml of ice-cold Tris-saline followed by rapid filtration under vacuum on Whatman GF/B filter presoaked in Tris-saline containing 0.1% polyethyleneimine (pH 7.4). The filters were washed three times with 4 ml of ice-cold Tris-saline, transferred to plastic tubes and counted in a γ-counter.
Hill coefficient was calculated by linear regression using saturation experiment data. Pseudo-Hill coefficient and IC50 were determined by the computer program, InPlot™ (GraphPad Software, CA, USA).
In general terms: Displacement assays read how much labelled ligand stays bound in the presence of the test substance.

The subject of another assay is guinea pig eosinophil. As to the kind of experiment: Leukotriene B4 induced guinea pig eosinophil chemotaxis. Format: cell-based. The conditions noted are these: for Effect of antagonist on the inhibition of eosinophil chemotaxis: inhibition by SM-11044 and BRL-35135A.
For assay [2], the target named is T2, SMBP in rat colon smooth muscle membranes (Rattus norvegicus, UniProt A0A8I6A822).
T2 construct: Membranes from colon smooth muscles were prepared as essentially described by Ek et al., 1986; from tissue
T2 sequence (A0A8I6A822 27-587): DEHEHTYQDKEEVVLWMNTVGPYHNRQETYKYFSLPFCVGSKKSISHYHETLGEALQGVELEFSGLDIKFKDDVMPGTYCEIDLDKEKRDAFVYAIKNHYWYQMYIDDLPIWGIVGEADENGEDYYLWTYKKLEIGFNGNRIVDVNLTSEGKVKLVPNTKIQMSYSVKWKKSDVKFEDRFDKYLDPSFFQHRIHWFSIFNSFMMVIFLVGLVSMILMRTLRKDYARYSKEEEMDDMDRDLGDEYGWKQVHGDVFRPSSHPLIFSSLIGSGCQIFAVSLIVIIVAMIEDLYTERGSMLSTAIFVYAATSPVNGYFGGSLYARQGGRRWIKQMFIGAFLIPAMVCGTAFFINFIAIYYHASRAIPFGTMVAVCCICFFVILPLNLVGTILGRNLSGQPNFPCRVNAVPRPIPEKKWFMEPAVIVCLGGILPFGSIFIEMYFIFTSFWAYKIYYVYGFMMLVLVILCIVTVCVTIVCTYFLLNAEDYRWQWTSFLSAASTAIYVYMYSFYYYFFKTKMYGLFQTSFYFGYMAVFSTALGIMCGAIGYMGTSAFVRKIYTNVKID
Description: [125I]-ICYP saturation binding to rat colon membranes (Example 1). The conditions noted are these: means ± SD. The protocol: Frozen rat colons (SD strains, male and female) were purchased from Pel-Freeze Biologicals (Arkansas, USA). Membranes from colon smooth muscles were prepared as essentially described by Ek et al., 1986, with the slight following modifications. The colon segment was washed in ice-cold Tris-saline (10 mM Tris/HCl, 154 mM NaCl, (pH 7.4)), cut open longitudinally and the mucosa was removed by scrubbing with a glass slide on ice-cold plastic plate. The smooth muscle preparations were homogenized with a Polytron homogenizer for 1 min. The homogenate was filtered through a gauze and centrifuged (1,500×g for 20 min at 4° C.), the supernatant was collected and centrifuged (50,000×g for 20 min at 4° C.). The pellet comprising the membranes was resuspended in Tris-saline and was stored at −80° C. until use. The protein concentration was determined by Bio-Rad protein assay kit (Bio-Rad USA).
Saturation binding studies were performed in a final volume of 200 μl of Tris-saline containing 50 μg membrane proteins and different concentrations (0.05-25 nM) of [^125I]-ICYP, in the presence of 10 μM serotonine (5-HT), 10 μM phentolamine, 20 μM (±) propranolol and 1.1 mM ascorbic-acid pH 7.4), to block possible 5-HT receptors, ARs and oxidation of catecholamines, respectively. […] The filters were washed three times with 4 ml of ice-cold Tris-saline, transferred to plastic tubes and counted in a γ-counter.

The next assay concerns rat white adipocytes. As to the kind of experiment: Lipolysis in rat white adipocytes. Format: cell-based. The conditions noted are these: for IA, rat white adipocyte lipolysis: 10 μM phentolamine and 1 μM propranolol, relative to isoproterenol, mean ± SEM; for EC50: Rattus norvegicus, Adipocyte, read-out: pD2, rat white adipocyte lipolysis (converted). The protocol: White adipocytes were isolated from epididymal fat pads of male Wistar rats (190-230 g) and lipolysis was determined according to the previous report (Sugasawa T. et al. cited above). The cells were preincubated for 5 min at 37° C. in the presence of 30 μM ascorbic acid, 10 μM phentolamine and 1 μM propranolol.
Agonists were then applied and incubated for 90 min. In the case of testing the effect of cyanopindolol, it was added 5 min before the addition of agonist.
(§1) Agonist concentration-ratios (CR) were determined from the EC50 values of the concentration-response curves of agonists with or without cyanopindolol, according to the method of Arunlakshana et al., 1959.
(§2) The EC50 values were calculated using the computer program, InPlot™.

Assay [3] concerns rat colon smooth muscle segment. As to the kind of experiment: Relaxation of KCl-induced tonus in rat colon segment (organ bath). The conditions noted are these: for IA, rat colon relaxation: 10 μM phentolamine and 1 μM propranolol, relative to isoproterenol, mean ± SEM; for EC50: Rattus norvegicus, read-out: pD2, rat colon relaxation (converted). Here is the method:
Rat colon segment (2 cm) was suspended in organ bath containing 10 ml modified-Tyrode solution (Sugasawa T. et al. Eur. J. Pharmacol., 1992, 216, 207-215). The Tyrode solution contained 0.5 μM atropine, 0.5 μM desmethylimipramine, 30 μM hydrocortisone, 30 μM ascorbic acid, 10 μM phentolamine and 1 μM propranolol throughout study, in order to inhibit spontaneous contraction, neuronal and extra-neuronal uptake of norepinephrine, oxidation of catecholamines, possible α, β1- and β2-AR effects, respectively.
The relaxant action of agonists was determined by measuring relaxation of KCl (100 mM)-induced tonus evoked by cumulative addition of the agonists as described previously (Sugasawa T. et al. cited above). In the case of testing the effect of cyanopindolol, it was added 5-10 min before the addition of agonist.
as §1, §2

The target in assay [4] is T3, 34 kDa photoaffinity-labeled protein (SMBP) in rat colon membranes (Rattus norvegicus, UniProt A0A8I6A822).
T3 construct: Membranes from colon smooth muscles were prepared as essentially described by Ek et al., 1986; from tissue
T3 sequence (A0A8I6A822 27-587): as above
As to the kind of experiment: Photoaffinity labeling of rat colon membranes with [125I]-ICYP-diazirine. Format: binding. The conditions noted are these: competitor 20 μM; 10 μM 5-HT and 10 μM phentolamine. The protocol:
Incubations were carried out in the presence or absence of competitor at 37° C. for 45 min in the dark in a shaking water-bath incubator and terminated by addition of 10 ml of ice-cold Tris-saline followed by a rapid centrifugation (150,000×g for 10 min at 4° C.). The membranes were irradiated with a UV lamp for 5 min with cooling by circulating water. The labeled membranes were diluted with 10 ml of ice-cold Tris-saline, centrifuged (150,000×g for 30 min at 4° C.), and the pellet was resuspended in Tris-saline and kept at −80° C.
SDS-PAGE was performed under reducing conditions essentially as described by Laemmli, 1970, using 12% polyacrylamide gels (40% T, 2.6% C). […] After electrophoresis, the gels were dried and autoradiographed on X-OMAT™ AR film (Eastman Kodak Co., NY, USA), as specified in example 1, chapter <<(preparative SDS-PAGE>>.

Where [5] appears, read: 1 nM [125I]-ICYP, 10 μM 5-HT, 10 μM phentolamine and 20 μM propranolol.

T1 sequence (A0A8I6A822 27-587): as above

For `C=CCc1ccccc1OCC(O)CNC(C)C` (racemic) [(±)-alprenolol, alprenolol], in assay [1] (setting [5]), the Pseudo-Hill coefficient was 0.85 ± 0.24 and the Ki (usually a measure of affinity in units of concentration, obtained from inhibition or displacement) was determined as 13.3 ± 2.4 µM. The “Effect of antagonist on the inhibition of eosinophil chemotaxis” value in the assay with guinea pig eosinophil is listed as “antagonized”.
Consider `Cc1ccc(Cl)c(OCC(O)CNC(C)(C)C)c1` (racemic) [(±)-bupranolol, bupranolol], for which, in assay [1] (setting [5]), the Pseudo-Hill coefficient is reported as 1.08 ± 0.08 and the Ki stood at 11.3 ± 0.8 µM.
For `CC(C)NCC(O)COc1cccc2[nH]c3ccccc3c12` (racemic) [(±)-carazolol, carazolol], in assay [1] (setting [5]), the Pseudo-Hill coefficient was determined as 0.77 ± 0.11 and the Ki is 8.1 ± 1.7 µM. Moreover, in assay [1], the “Displacement of [125I]-ICYP specific binding (in words)” value (“Displacement … (in words)” for short) is “less effective”.
As to `COC(=O)COc1ccc(OCCNCC(O)COc2ccccc2)cc1` (racemic) [ICI-198157, (RS)-4-[2-[(2-hydroxy-3-phenoxypropyl)amino]ethoxy]phenoxyacetic acid methyl ester], in assay [1] (setting [5]), the Pseudo-Hill coefficient is listed as 0.96 ± 0.23 and the Ki turned out to be 29.4 ± 8.9 µM. Further, in assay [1], the “Displacement … (in words)” value is recorded as “displaced the specific binding”.
Take `O=C([C@@H](NCCCc1ccc(F)cc1)[C@@H](O)c1ccc(O)c(O)c1)N1CCCC1` (racemic) [SM-14010]: in assay [1] (setting [5]), the Pseudo-Hill coefficient came to 0.67 ± 0.13 and the inhibition constant Ki was found to be 29.3 µM.
As for `O=C([C@@H](NCCCc1ccc(F)cc1)[C@H](O)c1ccc(O)c(O)c1)N1CCCC1` (racemic) [SM-14011], in assay [1] (setting [5]), the Pseudo-Hill coefficient was 1.07 ± 0.15 and the Ki was 2 µM. Also, the “Effectiveness in competition binding relative to SM-14010” value in assay [1] (ratio of Ki, SM-14011 vs SM-14010) is on record as 15 times.
On to `CCOC(=O)COc1ccc2c(c1)C[C@@H](NC[C@H](O)c1cccc(Cl)c1)CC2` (racemic) [SR-58611A, (RS)-N-(7 carbethoxymethoxyl-1,2,3,4-tetrahydronaphth-2-yl)-2-hydroxy-2-(3 chlorophenyl) ethanamine hydro-chloride], for which, in assay [1] (setting [5]), the Pseudo-Hill coefficient is listed as 1.21 ± 0.21 and the Ki worked out at 5.9 ± 1 µM.
With `CC(C)(C)NCC(O)COc1cccc2[nH]c(C#N)c(I)c12` (single isomer, unassigned; (-)) [[^125I]-ICYP, (−)-3-[^125I] iodocyanopindolol], the Kd (usually the constant that tells how readily two partners part at equilibrium) was determined as 0.011 ± 0.00095 µM in assay [1] (Example 2 membranes (Wistar rats), 10 μM 5-HT, 10 μM phentolamine and 20 μM propranolol, read-out: Dissociation constant (Kd), Scatchard plot); 0.00722 ± 7e-06 µM in assay [2] (Example 1 membranes (SD rats), blockade of adrenergic and serotonine receptors, read-out: Dissociation constant (Kd), Scatchard plot).
With `CC(C)(C)NCC(O)COc1cccc2[nH]c(C#N)c([125I])c12` (single isomer, unassigned; (-)) [[^125I]-ICYP, (−)-3-[^125I] iodocyanopindolol], the “Specific binding at equilibrium levels” value in assay [1] (1 nM [125I]-ICYP, 30 min, n=2) is 82.7±1.9%. Besides, the “Maximum number of binding sites (Bmax)” value in assay [1] (Example 2 membranes, 10 μM 5-HT, 10 μM phentolamine and 20 μM propranolol) worked out at 716.7±21.12 fmol/mg protein; in assay [2] (Example 1 membranes), 1.13 ±0.071 pmol/mg membrane protein. Further, the “Hill coefficient of the saturation curve” value in assay [1] (saturation experiment, 30 min incubation) came to 0.99±0.03.
With `NCCc1c[nH]c2ccc(O)cc12` [5-HT, serotonine], in assay [1] (setting [5]), the Ki is above 1000 µM. For the same molecule, the “Displacement of [125I]-ICYP specific binding” value in assay [1] is on record as “not displaced”.
Regarding `CNC[C@H](O)c1ccc(O)c(O)c1` [(−)-epinephrine, epinephrine], the Ki in assay [1] (setting [5]) was above 1000 µM. Also, the “Displacement of [125I]-ICYP specific binding” value in assay [1] was “not displaced”. In the assay on rat white adipocytes, the “IA, rat white adipocyte lipolysis” value worked out at 0.91 ± 0.036 and the EC50 was 6.92 µM. In assay [3], the “IA, rat colon relaxation” value worked out at 0.86 ± 0.137 and the EC50 is 1.2 µM.
In the case of `NC[C@H](O)c1ccc(O)c(O)c1` [(−)-norepinephrine, norepinephrine], the inhibition constant (Ki) in assay [1] (setting [5]) is above 1000 µM. Moreover, in assay [1], the “Displacement of [125I]-ICYP specific binding” value was “not displaced”. For the same molecule, in the assay on rat white adipocytes, the “IA, rat white adipocyte lipolysis” value is reported as 1.02 ± 0.058 and the EC50 was 3.98 µM. In assay [3], the “IA, rat colon relaxation” value was found to be 0.85 ± 0.168 and the EC50 was 1.41 µM.
Regarding `COC(=O)COc1ccc(CC(C)NCC(O)c2cccc(Cl)c2)cc1` (stereo not drawn) [BRL-35135A, (R*R*)-(+)-4-[2′-[2-hydroxy 2-(3-chlorophenyl)ethylamino]propyl]phenoxyacetic acid methyl ester], in assay [1] (setting [5]), the Pseudo-Hill coefficient amounted to 0.80 ± 0.14 and the Ki was determined as 1.4 ± 0.1 µM. For the same molecule, in assay [1], the “Displacement … (in words)” value is recorded as “displaced the specific binding”. Besides, the “Inhibition of leukotriene B4 induced guinea pig eosinophil chemotaxis” value in the assay with guinea pig eosinophil is “inhibiting”.
On to `CC(C)(C)NCC(O)COc1cccc2[nH]c(=O)[nH]c12` (stereo not shown) [CGP-12177A], for which, in assay [1] (setting [5]), the Ki is above 100 µM.
On to `NCCc1ccc(O)c(O)c1` [Dopamine, dopamine], for which, in assay [1] (setting [5]), the inhibitory constant (Ki) was above 1000 µM. In addition, in assay [1], the “Displacement of [125I]-ICYP specific binding” value is listed as “not displaced”.
As to `Nc1nc2c(ncn2[C@@H]2O[C@H](COP(=O)(O)OP(=O)(O)OP(=O)(O)O)[C@@H](O)[C@H]2O)c(=O)[nH]1` [GTP], the “Inhibition of [125I]-ICYP specific binding” value came to 29.8±2.7% in assay [1] (at 300 μM, n=2) and 98.2 ± 1.3% in assay [1] (at 1 mM, n=2).
Consider `Cc1ccc(OCC(O)C(C)NC(C)C)c2c1CCC2` (stereo not shown) [ICI-118551], for which, in assay [1] (setting [5]), the Pseudo-Hill coefficient amounted to 0.89 ± 0.14 and the Ki is 28.5 µM.
In the case of `O=C(O)COc1ccc(OCCNCC(O)COc2ccccc2)cc1` (stereo not shown) [ICI-201651], the Ki in assay [1] (setting [5]) is above 100 µM.
Take `O=C(O)COc1ccc(OCCNC[C@H](O)COc2ccccc2)cc1` [ICI-215001]: the Ki in assay [1] (setting [5]) is above 100 µM.
For the molecule `O=C([C@H](NCCCc1ccc(F)cc1)[C@@H](O)c1ccc(O)c(O)c1)N1CCCC1` [SM-14786], in assay [1] (setting [5]), the Pseudo-Hill coefficient was found to be 0.92 ± 0.15 and the Ki came to 3.7 ± 0.4 µM.
Regarding `CC(C)NCC(O)COc1cccc2ccccc12` (stereo not shown) [propranolol], in assay [4], the “Effect on photoaffinity-labeled bands” value is on record as “only the 34 kDa band remained visible”. Further, the “Effect of antagonist on the inhibition of eosinophil chemotaxis” value in the assay on guinea pig eosinophil is “unaffected”.
